In patent US12331093B2, “Fusion polypeptides for metabolic disorders” (BEIJING QL BIOPHARMACEUTICAL CO., LTD., priority 2021, dated 2025):

Tests used:
[1] = Food intake and body weight reduction in DIO mice; type: in vivo, C57BL/6 mice; settings: 10 nmol/kg QD
Method: 22 week old DIO male C57BL/6 mice (˜50 g) were injected once every other day (Q2D) subcutaneously with designated GLP-1 polypeptide conjugates (i.e., Molecule 012) for 25 days. Food intake and body weight were measured twice a week and fasting blood glucose was measured once a week. Five animals were used for each treatment group. Body weight and fasting blood glucose was monitored for each individual animal, but food intake for each group animals was measured together. Day 1 and Day 25 are first day and last day of molecule dosage. Data are indicated as mean values and standard error (SEM) or pooled values. Statistical analysis was performed by One-way ANOVA. Body weight reduction on Day 25 is calculated by −1*(% BW loss−% BW loss of vehicle group); Cumulative food intake reduction is calculated by −100*(cumulative food intake−cumulative food intake of vehicle)/cumulative food intake of vehicle.

human beta-Klotho = target: T1, human beta-Klotho (Homo sapiens, UniProt Q86Z14); test: In vitro FGF21 activity, p-ERK levels in HEK293 cell line overexpressing human beta-Klotho; type: cell-based; settings: compared with YH-dual
T1 construct: expressed in transfected cells; host or cells: HEK293 cell line
Method: The in vitro FGF21 activities of the fusion protein were assessed using a HEK293 cell line overexpressing human beta-Klotho. Tested fusion protein conjugates were measured at 400 nM top concentration with 4-fold serial dilutions in the presence of 1% HSA. After cells were treated with fusion protein conjugates for 12 mins, p-ERK levels were measured by p-ERK kit (Cisbio, 64ERKPEH).
The activity of each fusion protein was represented by EC50, derived from non-linear regression analysis.

[2] = Metabolic parameters in DIO animal model, 21 days; type: in vivo, C57BL/6 mice; settings: DIO mice, QD subcutaneously, FIG. 4B
Method: 16 week old DIO male C57BL/6 mice (35˜40 g) were injected once daily (QD) subcutaneously with designated GLP-1/FGF21 conjugates (i.e., MLC #9, MLC #14, MLC #16 and MLC #17) for 21 days. Food intake and body weight were measured once everyday and non-fasting blood glucose was measured once every three days. Five animals were used for each treatment group. Body weight and blood glucose was monitored for each individual animal, but food intake for each group of animals was measured together. Day 1 and Day 21 are first day and last day respectively of the treatment. Terminal blood was collected and EDTA-K3 plasma was prepared and frozen at −80° C. for biomarker measurement (LDL-C, TC, TG, ALT, insulin, adiponectin). Liver and adipose tissue were also collected and frozen in liquid nitrogen and store at −80° C. Data are indicated as mean values and standard error (SEM) or pooled values. Statistical analysis was performed by One-way ANOVA. Body weight reduction on Day 21 is calculated by −1*(% BW loss−% BW loss of vehicle group); Cumulative food intake reduction is calculated by −100*(cumulative food intake−cumulative food intake of vehicle)/cumulative food intake of vehicle.

| Substance | Body weight reduction (% reduction compared to vehicle) (Day 11) [1] [%] | Cumulative food intake reduction (% reduction compared to vehicle) (Day 11) [1] [%] | FGF21 efficacy (FIGS. 2A and 2B) (human beta-Klotho) | non-fasting glucose level [2] [mmol/L] |
| --- | --- | --- | --- | --- |
| Control#2: GLP1(del7-8, 22E, 36G)-(GAQP)5-ALB8-(GAQP)10-FGF21 (121Q, 168L, 171G, 180E), SEQ ID NO: 72, GLP1 dead [reference compound] | 21.7 | 19.1 | – | – |
| Control#6: GLP1(del7-8, 22E, 36G)-(GAQP)5-ALB8-(GAQP)-FGF21 (121Q, 168L, 171G, 180E), SEQ ID NO: 78, GLP1 dead [reference compound] | 24.6 | 13.1 | significantly higher FGF21 efficacy than YH-dual | – |
| Semaglutide [reference compound] | – | – | – | 7.5 to 10 |
